Data published in patent US11091749B2, “Deimmunized lysostaphin and methods of use” (TRUSTEES OF DARTMOUTH COLLEGE, priority 2014, dated 2021).
Where two headings read alike, the source gives them in different places. Where no end group is shown, it is not given here.

Tests used:
Test in all cases: MHC II competition binding assay
[1] = target: T1, DRB1*0301 (Homo sapiens, UniProt P01903+P01911, A100K/A102G/A103R/A169T/F55Y/I96L/K41T/L162R/M171V/P40S/Q125H/Q178H/Q39Y/R42S/S66N/T106N/T262R/W38E/Y61H)
T1 construct: purchased Benaroya Research Institute (Seattle, Wash.)
Experimental: (§1) MHC Binding Assays. MHC II competition binding assays were performed using a 384-well high throughput assay as previously described (Salvat, et al. (2014) supra). Binding assays were performed for the eight alleles: DRB1*0101, 0301, 0401, 0701, 0801, 1101, 1301, and 1501. Briefly, 100 nM biotinylated control peptides composed of known peptide antigens for each MHC II allele were incubated in polypropylene 384-well plates with 50 nM purified recombinant MHC II protein and serial dilutions of LST or variant peptide fragments (100 μM to 10 nM). Peptide-MHC II complexes were captured from equilibrated solutions using the conformation specific anti-HLA-DR antibody L243 coated on high binding ELISA plates. Bound control peptide was quantified using the DELFIA streptavidin-Europium conjugate and time resolved fluorescence (SpectraMax Gemini Fluorescence Microplate Reader).

[2] = target: DRB1*0801 (Homo sapiens, UniProt P01903+P01911, A100R/A103L/A169T/D86S/F76Y/H45Y/I96F/K41T/L162R/M171V/P40S/Q125H/Q178H/Q39Y/Q99D/R218S/R42G/S66Y/V115G/W38E)
Experimental: as §1

[3] = target: T2, DRB1*1501 (Homo sapiens, UniProt P01903+P01911)
T2 construct: purchased Benaroya Research Institute (Seattle, Wash.)
Experimental: as §1, with “MHC II competition binding assays were performed using a 384-well high throughput assay as previously described (Salvat, et al. (2014) supra). Binding assays were performed for the eight alleles: DRB1*0101, 0301, 0401, 0701, 0801, 1101, 1301, and 1501.” left out

[4] = target: T3, DRB1*0101 (Homo sapiens, UniProt P01903+P01911, A100R/D57E/F55L/F60I/F76Y/I96L/L162R/M171V/P40L/Q125E/R42F/V115G/Y59C)
T3 construct: purchased Benaroya Research Institute (Seattle, Wash.)
Experimental: as §1

[5] = target: T4, DRB1*0401 (Homo sapiens, UniProt P01903+P01911, A100K/A169T/F76Y/I96L/K127E/L162R/M171V/N62H/P40V/Q125Y/R42H/S133A/S149N/S66Y/V115G/V209L/W38E)
T4 construct: purchased Benaroya Research Institute (Seattle, Wash.)
Experimental: as §1

[6] = target: DRB1*1101 (Homo sapiens, UniProt P01903+P01911, A100R/A169T/A87E/I96F/K41T/L162R/M171V/P40S/Q125H/Q178H/Q39Y/Q99D/R42S/S66Y/T262R/V115G/W38E)
Experimental: as §1

[7] = target: DRB1*1301 (Homo sapiens, UniProt P01903+P01911, A100E/A169T/K41T/L162R/M171V/P40S/Q125H/Q178H/Q39Y/Q99D/R42S/S66N/T262R/W38E/Y61H)
Experimental: as §1

[8] = target: DRB1*0701 (Homo sapiens, UniProt P01903+P01911, A100R/A102G/A103Q/D57E/D86V/E43K/F76Y/K127E/L162R/M171V/P40G/Q125H/Q99D/R33Q/R42Y/R54Q/S133A/S66F/T210M/V115G/Y107V/Y59L/Y89S)
Experimental: as §1

[9] = synthetic peptide competing with biotinylated control peptide, read-out: IC50 0301
[10] = synthetic peptide competing with biotinylated control peptide, read-out: IC50 0401

GVDFFMNEGTPVKAISSGKIV [Design 141E]
IC50 [1, 9]: > 250 µM | IC50 ([2]; synthetic peptide competing with biotinylated control peptide, read-out: IC50 0801): > 250 µM

DHVKAGQQIGWSGSTGY [Peptide 93_99]
IC50 ([3]; DRB1*1501, read-out: IC50): < 0.01 µM | IC50 ([4]; DRB1*0101, read-out: IC50): < 0.01 µM | IC50 ([1]; DRB1*0301, read-out: IC50): > 250 µM | IC50 ([2]; DRB1*0801, read-out: IC50): > 250 µM | IC50 ([5]; DRB1*0401, read-out: IC50): < 0.01 µM | IC50 ([6]; DRB1*1101, read-out: IC50): > 250 µM | IC50 ([7]; DRB1*1301, read-out: IC50): > 250 µM

HLHFQRMVNSFSNPTAQ [Design C5WT]
IC50 ([3]; DRB1*1501, read-out: IC50): < 0.01 µM | IC50 ([1]; DRB1*0301, read-out: IC50): > 250 µM | IC50 ([2]; DRB1*0801, read-out: IC50): 22 µM | IC50 ([8]; DRB1*0701, read-out: IC50): 15.2 µM | IC50 ([5]; DRB1*0401, read-out: IC50): 0.05 µM | IC50 ([6]; DRB1*1101, read-out: IC50): < 0.01 µM | IC50 ([7]; DRB1*1301, read-out: IC50): > 250 µM

SAQWLGNYKKGYGYG [Design N12G]
IC50 ([3]; synthetic peptide competing with biotinylated control peptide, read-out: IC50 1501): > 250 µM | IC50 ([4]; synthetic peptide competing with biotinylated control peptide, read-out: IC50 0101): < 0.01 µM | IC50 [1, 9]: > 250 µM | IC50 ([8]; synthetic peptide competing with biotinylated control peptide, read-out: IC50 0701): > 250 µM | IC50 [5, 10]: > 250 µM | IC50 ([7]; synthetic peptide competing with biotinylated control peptide, read-out: IC50 1301): > 250 µM

Asn12Gly: full-length lysostaphin single point mutant
binder class DRB1*0101 [4]: strong (strong binder if an IC50 value of less than 0.1 μM was observed)

HLHFQTMVNDFSNPTAQ [Peptide 18_22]
IC50 [3]: < 0.01 µM | IC50 [4]: < 0.01 µM | IC50 [1]: 28.2 µM | IC50 [2]: > 250 µM | IC50 [8]: 111 µM | IC50 [5]: < 0.01 µM | IC50 [6]: < 0.01 µM | IC50 [7]: > 250 µM

Tyr93His/Lys95Glu: cluster 4 synthetic peptide with Tyr93His and Lys95Glu (Table 15) (DHVEAGQIIGWSGSTGY)
binder class DRB1*0101 [4]: moderate (moderate if an IC50 value was in the 0.1-1 μM range)

Leu83Met: full-length lysostaphin single point mutant
binder class DRB1*1501 [3]: moderate (moderate if an IC50 value was in the 0.1-1 μM range) | binder class DRB1*0101 [4]: weak (weak if an IC50 value was in the 1-10 μM range) | binder class DRB1*0301 [1]: non-binder (All peptides above 10 μM were considered non-binders) | fold decrease in binding vs wild-type peptide, 0801 [2]: approximately five-fold | binder class DRB1*0701 [8]: moderate (moderate if an IC50 value was in the 0.1-1 μM range) | fold decrease in binding vs wild-type peptide, 0701 [8]: two-fold | fold reduction in binding vs wild-type peptide, 1101 [6]: ten-fold | binder class DRB1*1301 [7]: weak (weak if an IC50 value was in the 1-10 μM range)

GVHRQWYMHMSKYNVKVGD [Design L83M]
IC50 [5, 10]: > 250 µM

DHVKAGQIIGWSGSTGY [Peptide Y93H]
IC50 [3]: < 0.01 µM | IC50 [1]: > 250 µM | IC50 [2]: > 250 µM | IC50 [5]: > 250 µM | IC50 [6]: > 250 µM | IC50 [7]: > 250 µM

CSCC[C@H](NC(=O)[C@H](Cc1ccc(O)cc1)NC(=O)[C@H](Cc1c[nH]c2ccccc12)NC(=O)[C@H](CCC(N)=O)NC(=O)[C@H](CCCNC(=N)N)NC(=O)[C@H](Cc1c[nH]cn1)NC(=O)[C@@H](NC(=O)CN)C(C)C)C(=O)N[C@@H](Cc1c[nH]cn1)C(=O)N[C@@H](CC(C)C)C(=O)N[C@@H](CO)C(=O)N[C@@H](CCCCN)C(=O)N[C@@H](Cc1ccc(O)cc1)C(=O)N[C@@H](CC(N)=O)C(=O)N[C@H](C(=O)N[C@@H](CCCCN)C(=O)N[C@H](C(=O)NCC(=O)N[C@@H](CC(=O)O)C(=O)O)C(C)C)C(C)C [Design C3WT]
binder class DRB1*1501 [3]: weak (weak if an IC50 value was in the 1-10 μM range) | binder class DRB1*0101 [4]: strong (strong binder if an IC50 value of less than 0.1 μM was observed) | binder class DRB1*0701 [8]: strong (strong binder if an IC50 value of less than 0.1 μM was observed) | binder class DRB1*1301 [7]: weakly

HLHFQTMVNDFGNPTAQ [Peptide 182224]
IC50 [3]: 0.42 µM | IC50 [4]: 7.43 µM | IC50 [1]: 133 µM | IC50 [2]: > 250 µM | IC50 [8]: > 250 µM | IC50 [5]: 7.52 µM | IC50 [6]: 14.1 µM | IC50 [7]: > 250 µM

HLHFQRMVNSFGNPTAQ [Peptide S124G]
IC50 ([3]; DRB1*1501, read-out: IC50): < 0.01 µM | IC50 ([4]; DRB1*0101, read-out: IC50): < 0.01 µM | IC50 ([1]; DRB1*0301, read-out: IC50): > 250 µM | IC50 ([2]; DRB1*0801, read-out: IC50): > 250 µM | IC50 ([7]; DRB1*1301, read-out: IC50): > 250 µM

DYVEAGQIIGWSGSTGY [Peptide K95E]
IC50 [3]: < 0.01 µM | IC50 [4]: < 0.01 µM | IC50 [5]: < 0.01 µM
